Reference: patent US11813350B2, “Composition for the treatment of rosacea and/or telangiectasia” (NAOS INSTITUTE OF LIFE SCIENCE, priority 2020, dated 2023)

Tested on: KLK-5
Assay: Inhibition of the synthesis of KLK-5 secreted by normal human keratinocytes in an environment mimicking rosacea (IL-17 + Vit. D induction, ELISA on supernatants, normalized to MTT cell viability)
Type: cell-based
Details: Keratinocyte, NHK, 48 hours, induced with IL-17 10 ng/ml + Vit. D 10-7 mol/L, 1 mM calcium, positive control
Method: NHKs originating from LONZA (France) were used in this study.
The culture conditions are as follows: • Cell type: NHK donor PP12 • Culture medium: KBM+Lonza supplements=KGM • Seeding density: 15,000 cells/well in 96-well plates with 100 μl of medium.
The conditions for induction of the synthesis of KLK-5 are as follows: • Presence of 1 mM of calcium • Inducer mix: (see Table 1) IL-17 at 10 ng/ml+Vit. D at 10-7 mol/L • Processing time: 48 hours • Positive control of induced KLK5 inhibition: Dexamethasone at 1 μM
The quantification of KLK-5 in the supernatants is carried out using an Enzyme Linked Immunosorbent Assay (ELISA) (Ref: DY8459-05, R&D Systems, France) with the reagents recommended by the manufacturer (DuoSet Ancillary Reagent Kit 2, Ref: DY008, R&D Systems, France) and used according to the manufacturer's instructions.
The optical density (OD) is read with a spectrophotometer at 450 nm. The concentration of KLK-5 is calculated from the standard range (15.6 to 1000 pg/ml) established with the recombinant human protein of KLK-5.
A dilution of the supernatants to 1/50th is mandatory so that the samples are not out of range. […]
MTT is a soluble yellow dye which is metabolized by mitochondrial enzymes (succinate dehydrogenase) into a dark blue compound: formazan. The formazan crystals are then dissolved in DMSO then the optical density is measured spectrophotometrically at 540 nm. […]

In the case of `C[C@@H]1C[C@H]2[C@@H]3CCC4=CC(=O)C=C[C@]4(C)[C@@]3(F)[C@@H](O)C[C@]2(C)[C@@]1(O)C(=O)CO` [dexamethasone], the inhibition at 1 µM is reported as 16.6%.
